# Test results taken from patent US8906826B2, “Herbicidal compositions comprising 4-amino-3-chloro-5-fluoro-6-(4-chloro-2-fluoro-3-methoxyphenyl) pyridine-2-carboxylic acid or a derivative thereof and imidazolinones” (Dow AgroSciences, LLC, priority 2012, dated 2014).
# What was measured:
# ECHOR = assay: In-water applied, transplanted paddy rice weeds (Example II); format: in vivo, Echinochloa oryzoides (Ard.) Fritsch
# Description: Weed seeds or nutlets of the desired test plant species were planted in puddled soil (mud) prepared by mixing a shredded, non-sterilized mineral soil (50.5 percent silt, 25.5 percent clay, and 24 percent sand, with a pH of about 7.6 and an organic matter content of about 2.9 percent) and water at a 1:1 volumetric ratio. The prepared mud was dispensed in 365 mL aliquots into 16-ounce (oz.) non-perforated plastic pots with a surface area of 86.59 square centimeters (cm^2) leaving a headspace of 3 centimeters (cm) in each pot. Mud was allowed to dry overnight prior to planting or transplanting. Rice seeds were planted in Sun Gro MetroMix® 306 planting mixture, which typically has a pH of about 6.0 to about 6.8 and an organic matter content of about 30 percent, in plastic plug trays. Seedlings at the second or third leaf stage of growth were transplanted into 860 mL of mud contained in 32-oz. non-perforated plastic pots with a surface area of 86.59 cm^2 4 days prior to herbicide application. The paddy was created by filling the headspace of the pots with 2.5 to 3 cm of water. When required to ensure good germination and healthy plants, a fungicide treatment and/or other chemical or physical treatment was applied. The plants were grown for 4-22 days in a greenhouse with an approximate 14 h photoperiod which was maintained at about 29° C. during the day and about 26° C. during the night. Nutrients were added as Osmocote® (19:6:12, N:P:K+minor nutrients) at 2 g per 16-oz. pot and 4 g per 32-oz. pot. Water was added on a regular basis to maintain the paddy flood, and supplemental lighting was provided with overhead metal halide 1000-Watt lamps as necessary. The plants were employed for testing when they reached the first through fourth true leaf stage.
# (§1) Treatments consisted of the acid or esters of 4-amino-3-chloro-5-fluoro-6-(4-chloro-2-fluoro-3-methoxy-phenyl)pyridine-2-carboxylic acid (compound A) each formulated as an SC and various herbicidal components alone and in combination. Forms of compound A were applied on an acid equivalent basis.
# (§2) Other herbicidal components were applied on an acid equivalent basis and included the acetolactate synthase (ALS)-inhibiting imidazolinone herbicides imazethapyr ammonium salt formulated as Newpath®, imazamox ammonium salt formulated as Beyond®, imazapic ammonium salt formulated as Plateau®, imazapyr isopropylamine salt formulated as Arsenal®, imazamethabenz-methyl (technical material), and imazaquin isopropylamine salt formulated as Scepter®.
# Treatment requirements for each compound or herbicidal component were calculated based upon the rates being tested, the concentration of active ingredient or acid equivalent in the formulation, an application volume of 2 mL per component per pot, and an application area of 86.59 cm^2 per pot.
# For formulated compounds, a measured amount was placed in an individual 100 or 200 mL glass vial and was dissolved in a volume of 1.25% (v/v) Agri-Dex® crop oil concentrate to obtain application solutions.
# For technical grade compounds, a weighed amount was placed in an individual 100 to 200 mL glass vial and was dissolved in a volume of acetone to obtain concentrated stock solutions. […] The concentrated stock solutions obtained were diluted with an equivalent volume of an aqueous mixture containing 2.5% (v/v) crop oil concentrate so that the final application solutions contained 1.25% (v/v) crop oil concentrate.
# Applications were made by injecting with a pipetter appropriate amounts of the application solutions, individually and sequentially, into the aqueous layer of the paddy. Control plants were treated in the same manner with the solvent blank. Applications were made so that all treated plant material received the same concentrations of acetone and crop oil concentrate.
# The treated plants and control plants were placed in a greenhouse as described above and water was added as needed to maintain a paddy flood. […]
# ECHCO = assay: Postemergence foliar-applied, direct seeded rice weeds (Example I); format: in vivo, Echinochloa colona (L.) Link
# Description: Seeds or nutlets of the desired test plant species were planted in a soil matrix prepared by mixing a loam or sandy loam soil (e.g., 28.6 percent silt, 18.8 percent clay, and 52.6 percent sand, with a pH of about 5.8 and an organic matter content of about 1.8 percent) and calcareous grit in an 80 to 20 ratio. The soil matrix was contained in plastic pots with a volume of 1 quart and a surface area of 83.6 cm^2. When required to ensure good germination and healthy plants, a fungicide treatment and/or other chemical or physical treatment was applied. The plants were grown for 8-22 days in a greenhouse with an approximate 14 h photoperiod which was maintained at about 29° C. during the day and 26° C. during the night. Nutrients (Peters Excel® 15-5-15 5-Ca 2-Mg and iron chelate) were applied in the irrigation solution as needed and water was added on a regular basis. Supplemental lighting was provided with overhead metal halide 1000-Watt lamps as necessary. The plants were employed for testing when they reached the first through fourth true leaf stage.
# as §1, with “(Compound A),” for “(compound A)”, “SC (suspension concentrate),” for “SC”
# as §2, with “include” for “included the”, “(ALS)-inhibiting” for “(ALS)-inhibiting imidazolinone”, “herbicides (imidazolinone chemical class)” for “herbicides”, “material)” for “material),”, “Scepter®/Imagine®.” for “Scepter®.”
# Treatment requirements were calculated based upon the rates being tested, the concentration of active ingredient or acid equivalent in the formulation, and a 12 mL application volume at a rate of 187 L/ha.
# For treatments comprised of formulated compounds, measured amounts of compounds were placed individually in 25 mL glass vials and diluted in a volume of 1.25% (v/v) Agri-Dex® crop oil concentrated to obtain 12× stock solutions. […]
# For treatments comprised of formulated and technical compounds, weighed amounts of the technical materials were placed individually in 25 mL glass vials and dissolved in a volume of 97:3 v/v acetone/DMSO to obtain 12× stock solutions, and measured amounts of the formulated compounds were placed individually in 25 mL glass vials and diluted in a volume of 1.5% (v/v) crop oil concentrate or water to obtain 12× stock solutions. […]
smiles,measurement,setting,value
"COCc1cnc(C2=NC(C)(C(C)C)C(=O)N2)c(C(=O)O)c1.N (racemic) [Imazamox ammonium, ammonium (±)-2-[4,5-dihydro-4-methyl-4-(1-methylethyl)-5-oxo-1H-imidazol-2-yl]-5-(methoxymethyl)-3-pyridinecarboxylate]",Visual Weed Control (%) - 25 DAA ECHOR Obs,ECHOR; Imazamox ammonium 5.6 gae/ha,0%
same,Visual Weed Control (%) - 25 DAA ECHOR Obs,ECHOR; Imazamox ammonium 11.2 gae/ha,0%
same,Visual Weed Control (%) - 25 DAA ECHOR Obs,ECHOR; Imazamox ammonium 22.4 gae/ha,0%
"Cc1cnc(C2=NC(C)(C(C)C)C(=O)N2)c(C(=O)O)c1.N (racemic) [Imazapic ammonium, ammonium (±)-2-[4,5-dihydro-4-methyl-4-(1-methylethyl)-5-oxo-1H-imidazol-2-yl]-5-methyl-3-pyridinecarboxylic acid]",Visual Weed Control (%) - 25 DAA ECHCO Obs,ECHCO; Imazapic ammonium 17.5 gae/ha,70%
same,Visual Weed Control (%) - 25 DAA ECHOR Obs,ECHOR; Imazapic ammonium 4.38 gae/ha,0%
same,Visual Weed Control (%) - 25 DAA ECHOR Obs,ECHOR; Imazapic ammonium 8.75 gae/ha,0%
same,Visual Weed Control (%) - 25 DAA CHOR Obs,ECHOR; Imazapic ammonium 17.5 gae/ha,0%
same,Visual Weed Control (%) - 25 DAA ECHOR Obs,ECHOR; Imazapic ammonium 17.5 gae/ha,0%
same,Visual Weed Control (%) - 19 DAA ECHOR Obs,ECHOR; Imazapic ammonium 35 gae/ha,78%
"CCc1cnc(C2=NC(C)(C(C)C)C(=O)N2)c(C(=O)O)c1.N (racemic) [Imazethapyr ammonium, ammonium (±)-2-[4,5-dihydro-4-methyl-4-(1-methylethyl)-5-oxo-1H-imidazol-2-yl]-5-ethyl-3-pyridinecarboxylate]",Visual Weed Control (%) - 25 DAA ECHOR Obs,ECHOR; Imazethapyr ammonium 8.75 gae/ha,0%
same,Visual Weed Control (%) - 25 DAA ECHOR Obs,ECHOR; Imazethapyr ammonium 17.5 gae/ha,0%
same,Visual Weed Control (%) - 25 DAA ECHOR Obs,ECHOR; Imazethapyr ammonium 35 gae/ha,25%
"COc1c(Cl)ccc(-c2nc(C(=O)O)c(Cl)c(N)c2F)c1F [Compound A Acid, 4-amino-3-chloro-6-(4-chloro-2-fluoro-3-methoxyphenyl)-5-fluoropyridine-2-carboxylic acid]",Visual Weed Control (%) - 25 DAA ECHCO Obs,ECHCO; Compound A Acid 4.38 gae/ha,60%
same,Visual Weed Control (%) - 25 DAA ECHCO Obs,ECHCO; Compound A Acid 8.75 gae/ha,65%
same,Visual Weed Control (%) - 25 DAA ECHCO Obs,ECHCO; Compound A Acid 17.5 gae/ha,90%
same,Visual Weed Control (%) - 25 DAA CHOR Obs,ECHOR; Compound A Acid 8.75 gae/ha,0%
same,Visual Weed Control (%) - 25 DAA ECHOR Obs,ECHOR; Compound A Acid 8.75 gae/ha,0%
same,Visual Weed Control (%) - 22 DAA ECHOR Obs,ECHOR; Compound A Acid 10.6 gae/ha,15%
same,Visual Weed Control (%) - 25 DAA CHOR Obs,ECHOR; Compound A Acid 17.5 gae/ha,0%
same,Visual Weed Control (%) - 25 DAA ECHOR Obs,ECHOR; Compound A Acid 17.5 gae/ha,0%
same,Visual Weed Control (%) - 25 DAA CHOR Obs,ECHOR; Compound A Acid 35 gae/ha,10%
same,Visual Weed Control (%) - 25 DAA ECHOR Obs,ECHOR; Compound A Acid 35 gae/ha,10%
same,Visual Weed Control (%) - 19 DAA ECHOR Obs,ECHOR; Compound A Acid 42 gae/ha,15%
same,Visual Weed Control (%) - 22 DAA ECHOR Obs,ECHOR; Compound A Acid 42.4 gae/ha,40%
"COc1c(Cl)ccc(-c2nc(C(=O)OCc3ccccc3)c(Cl)c(N)c2F)c1F [Compound A Benzyl Ester, benzyl ester of 4-amino-3-chloro-5-fluoro-6-(4-chloro-2-fluoro-3-methoxy-phenyl)pyridine-2-carboxylic acid]",Visual Weed Control (%) - 25 DAA ECHOR Obs,ECHOR; Compound A Benzyl Ester 8.75 gae/ha,0%
same,Visual Weed Control (%) - 22 DAA ECHOR Obs,ECHOR; Compound A Benzyl Ester 17.5 gae/ha,30%
